In US20050004007A1, “Promotion of adoptosis in cancer cells by co-administration of cyclin dependent kinase inhibitiors and cellular differentiation agents” (priority 2000, published 2005):

Legend:
[1] = test system: U937 human leukemia cells; experiment: morphological assessment of apoptosis (Wright and Giemsa-stained cytospin); assay type: cell-based
Description: Cell culture. The myelomonocytic leukemia cell line U937 was derived from a patient with histiocytic lymphoma and was obtained from American Type Culture Collection. The HL-60 cell line was derived from a patient with acute promyelocytic leukemia as previously described [Grant et al. 1992]. U937 and HL-60 cells were maintained in logarithmic growth phase by culturing in suspension in phenol red-free RPMI-1640 (Life Technologies, Inc., Grand Island, N.Y.) and 10% (v/v) fetal calf serum (Hyclone, Logan, Utah), in a humidified atmosphere (95% air/5% CO2) at 37° C. To obtain antisense-expressing cell lines, U937 cells were transfected by electroporation with a pREP4 vector (Invitrogen; Carlsbad, Calif.) or the pREP4 vector containing the p21^WAF1/CIP1 coding region in an antisense orientation as previously described [Wang et al. 1999]. […]
Morphological assessment of apoptosis. U937 cells were evaluated for apoptosis by morphological assessment of Wright and Giemsa-stained cytospin preparations. At designated times, cells were transferred to slides by cytocentrifugation, fixed, stained, and evaluated under light microscopy for treatment-induced apoptosis. […] Five or more randomly selected fields, encompassing a total≧500 cells/slide, were evaluated to determine the percentage of apoptotic cells for each treatment condition.

pRb/E2F complexes = experiment: pRb immunoprecipitation and EMSA of E2F in U937 cells; assay type: cell-based, human; details: 8 h exposure; 10 nM PMA, 100 nM FP, 1 mM SB
Procedure: Electrophoretic Mobility Shift Assay (EMSA) and Immunoprecipitation (IP). Whole-cell extracts were prepared as previously described [Bagchi et al. 1990] and EMSA following IP was performed as previously reported [Chellapan et al. 1991]. Whole cell extracts (150 μg) were combined with 4 μl of anti-RB monoclonal antibody (Calbiochem) for the IP. Immunoprecipitated proteins were recovered on Protein A sepharose beads and dissociated by treatment with deoxycholate. The presence of E2F in the IP was monitored by EMSA as previously noted [Yee et al. 1987].
Immunoprecipitation and EMSA. Whole-cell extracts were prepared by hypotonic shock followed by salt extraction, as described previously (Chellappan et al., 1991). Portions (50 to 200 μg) of whole-cell extracts were treated with 5 μl of the appropriate primary antibody in a volume of 100 μl at 4° C. for 1 h. Then, 3 mg of protein A-Sepharose or protein G-Sepharose in a 100-μl volume was added and incubated for an additional hour. The binding was performed in a buffer containing 20 mM HEPES (pH 7.9), 40 mM KCl, 1 mM MgCl2, 0.1 mM EGTA, 0.1 mM EDTA, 0.1 mM DTT, 0.1 mM NaF, 0.1 mM Na3VO4, 0.5% NP-40, and 3 mg of BSA per ml. The beads were washed six times with 600 μl of the same buffer and boiled in 20 μl of SDS sample buffer. […] The gel was dried, and the bands were detected by autoradiography.

SMILES: CN1CC[C@H](c2c(O)cc(O)c3c(=O)cc(-c4ccccc4Cl)oc23)[C@H](O)C1 [FP, Flavopiridol]
- percentage of apoptotic cells ([1]; FP concentrations ≦100 nM, regardless of treatment interval (6-24 h)): ≤ 10%
- induction of apoptosis ([1]; FP concentrations ≧200 nM, chronic exposures (12 or 24 h)): susceptible to apoptosis
- E2F binding to labeled probe after pRb immunoprecipitation (pRb/E2F complexes): clear reduction in E2F binding
